Results from patent US8410141B2, “Insecticidal arylpyrrolines” (Bayer Cropscience AG, priority 2009, dated 2013).

How the values were obtained:
Format in all cases: in vivo
[1] = system: Tobacco Cutworm (Spodoptera litura) Larvae; assay: Test against tobacco cutworm larvae, root systemicity; conditions: 100 ppm; broccoli seedling roots dipped 3 days; second-instar larvae; after 4 days
Experimental: (§1) Unless not mentioned otherwise, the test solutions were prepared as follows:
(§2) Containing as solvent: Dimethylformamide, 3 parts by weight; and as emulsifier: Polyoxyethylene alkyl phenyl ether, 1 part by weight. To prepare the test solution, 1 part by weight of an active compound is mixed with the above-mentioned amount of solvent containing the above-mentioned amount of emulsifier, and the mixture is diluted with water to the desired concentration.
The roots of seedling of broccoli at 1.2 leaf stage were dipped into the test solution at the appropriate concentration. After 3 days, the leaves were cut and placed in a petri dish having a diameter of 9 cm. And then five second-instar larvae of tobacco cutworm were released therein. The petri dish was placed in a temperature-controlled room at 25° C. After 4 days, the number of dead larvae was counted, to calculate the insecticidal activity. An insecticidal activity of 100% means that all larvae were killed, whereas an insecticidal activity of 0% means that no larva was killed.

[2] = system: Cucurbit Leaf Beetle (Aulacophora femoralis); assay: Test against cucurbit leaf beetle (Aulacophora femoralis), leaf immersion; conditions: 100 ppm; cucumber leaves immersed; second-instar larvae; after 7 days
Experimental: as §1, §2
Cucumber leaves were immersed in the test solution at the appropriate concentration, and the leaves were dried in air. The leaves were then placed in a plastic cup containing sterilized black soil, and five second-instar larvae of cucurbit leaf beetle were released therein. The plastic cup was placed in a temperature-controlled chamber at 25° C. After 7 days, the number of dead larvae was counted, and thus the insecticidal activity was calculated. An insecticidal activity of 100% means that all beetles were killed, whereas an insecticidal activity of 0% means that no beetle was killed.

[3] = system: Two-Spotted Spider Mite (Tetranychus urticae); assay: Test against two-spotted spider mite (Tetranychus urticae), spray; conditions: 100 ppm; sprayed on kidney bean; adult mites; after 7 days
Experimental: as §1, §2
50 to 100 adult two-spotted spider mites were inoculated onto the leaves of kidney beans at the two-true leaf stage, which plant had been cultivated in a pot having a diameter of 6 cm. After one day, test solution at the appropriate concentration was sprayed thereon in a sufficient amount using a spray gun. After the spraying, the plant pot was placed inside a greenhouse, and after 7 days, the acaricidal activity was calculated. An acaricidal activity of 100% means that all mites were killed, whereas an acaricidal activity of 0% means that no mite was killed.

[4] = system: Tobacco Cutworm (Spodoptera litura) Larvae; assay: Test against tobacco cutworm (Spodoptera litura) larvae, leaf immersion; conditions: 100 ppm; sweet potato leaves immersed; third-instar larvae; after 7 days
Experimental: as §1, §2
The leaves of sweet potato were immersed in the test solution at the appropriate concentration, and the leaves were dried in air. The leaves were then placed in a petri dish having a diameter of 9 cm, and ten third-instar larvae of tobacco cutworm were released therein. The petri dish was placed in a temperature-controlled chamber at 25° C. After 2 days and 4 days sweet potato leaves were additionally added. After 7 days, the number of dead larvae was counted to calculate the insecticidal activity. An insecticidal activity of 100% means that all larvae were killed, whereas an insecticidal activity of 0% means that no larva was killed. In the current test, the results of two petri dishes for each partition were averaged.

[5] = system: Musca domestica; assay: Musca domestica test; conditions: 100 ppm; sponge with sugar and compound solution; adults; after 2 days
Experimental: Solvent: dimethyl sulfoxide
To produce a suitable preparation of active compound, 10 mg of active compound are dissolved in 0.5 ml solvent, and the concentrate is diluted with water to the desired concentration. Prior to the assay, a piece of kitchen sponge is soaked with a mixture of sugar and compound solution and placed into a container. 10 adults (Musca domestica) are placed into the container and closed with a perforated lid. After 2 days mortality in % is determined. 100% means that all the flies have been killed; 0% means that none of the flies have been killed.

SMILES | insecticidal activity [1] [%] | insecticidal activity [2] [%] | acaricidal activity rate [3] [%] | insecticidal activity [4] [%] | mortality [5] [%]
N#Cc1cc(C2=NCC(c3ccc(F)c(C(F)(F)F)c3)(C(F)(F)F)C2)ccc1-n1cncn1 (stereo not drawn) [1-4] | 100 | 100 | 100 | 100 | 
N#Cc1cc(C2=NCC(c3cc(Cl)c(Br)c(Cl)c3)(C(F)(F)F)C2)ccc1-n1cncn1 (stereo not drawn) [1-15] |  | 100 | 100 | 100 | 
N#Cc1cc(C2=NCC(c3cccc(C(F)(F)F)c3F)(C(F)(F)F)C2)ccc1-n1cncn1 (stereo not drawn) [1-19] |  | 100 | 100 | 100 | 90
FC(F)(F)C1(c2cc(Cl)c(Cl)c(Cl)c2)CN=C(c2ccc(-n3cncn3)cc2)C1 (stereo not drawn) [1-27] |  | 100 | 100 | 100 | 
FC(F)(F)C1(c2cc(Cl)c(Cl)c(Cl)c2)CN=C(c2ccc(-n3cncn3)c(Br)c2)C1 (stereo not drawn) [1-31] |  | 100 | 100 | 100 | 
FC(F)(F)c1cc(C2=NCC(c3cc(Cl)c(Cl)c(Cl)c3)(C(F)(F)F)C2)ccc1-n1cncn1 (stereo not drawn) [1-34] |  | 100 |  | 100 | 
O=[N+]([O-])c1cc(C2=NCC(c3cc(Cl)c(Cl)c(Cl)c3)(C(F)(F)F)C2)ccc1-n1cncn1 (stereo not drawn) [1-35] |  | 100 | 100 | 100 | 
N#Cc1cc(C2=NCC(c3cc(C(F)(F)F)cc(Cl)n3)(C(F)(F)F)C2)ccc1-n1cncn1 (stereo not drawn) [1-84] | 100 | 100 | 100 | 100 | 
FC(F)(F)C1(c2cc(Cl)c(Cl)c(Cl)c2)CN=C(c2ccc(-n3cncn3)nc2)C1 (stereo not drawn) [1-110] |  | 100 | 100 | 100 | 
N#Cc1cc(C2=NCC(c3ccnc(C(F)(F)C(F)(F)F)c3)(C(F)(F)F)C2)ccc1-n1cncn1 (stereo not drawn) [1-156] |  | 100 | 100 | 100 | 
Cc1ccc(C2(C(F)(F)F)CN=C(c3ccc(-n4cncn4)c(C#N)c3)C2)cc1[N+](=O)[O-] (stereo not drawn) [1-174] |  |  | 100 |  | 
Cc1cc([N+](=O)[O-])cc(C2(C(F)(F)F)CN=C(c3ccc(-n4cncn4)c(C#N)c3)C2)c1 (stereo not drawn) [1-180] |  |  | 100 |  | 
N#Cc1cc(C2=NCC(c3cncc(C(F)(F)F)c3)(C(F)(F)F)C2)ccc1-n1cncn1 (stereo not drawn) [1-481] |  | 100 |  | 100 | 
N#Cc1cc(C2=NCC(c3cc(C(F)(F)F)ccc3F)(C(F)(F)F)C2)ccc1-n1cncn1 (stereo not drawn) [1-482] |  | 100 | 100 | 100 | 
N#Cc1cc(C2=NCC(c3ccnc(Cl)c3)(C(F)(F)F)C2)ccc1-n1cncn1 (stereo not drawn) [1-484] |  | 100 | 100 |  | 
N#Cc1cc(C2=NCC(c3cc(Cl)cc(Cl)c3Cl)(C(F)(F)F)C2)ccc1-n1cncn1 (stereo not drawn) [1-488] |  | 100 | 100 | 100 | 
FC(F)(F)C1(c2cc(Cl)nc(Cl)c2)CN=C(c2cnc(-n3cncn3)c(Cl)c2)C1 (stereo not drawn) [1-490] |  | 100 |  | 100 | 
FC(F)(F)c1cc(C(F)(F)F)cc(C2(C(F)(F)F)CN=C(c3cnc(-n4cncn4)c(Cl)c3)C2)c1 (stereo not drawn) [1-491] |  | 100 |  | 100 | 
N#Cc1cc(C2=NCC(c3cc(Cl)nc(C(F)(F)F)c3)(C(F)(F)F)C2)ccc1-n1cncn1 (stereo not drawn) [1-492] | 100 | 100 | 100 | 100 | 

SMILES | insecticidal activity [1] [%] | insecticidal activity [2] [%] | acaricidal activity rate [3] [%] | insecticidal activity [4] [%] | mortality [5] [%]
N#Cc1cc(C2=NCC(c3cc(C(F)(F)F)cc(C(F)(F)F)c3)(C(F)(F)F)C2)cnc1-n1cncn1 (stereo not drawn) [1-494] |  | 100 |  | 100 | 
N#Cc1cc(C2=NCC(c3cc(Br)c4c(c3)OC(F)(F)O4)(C(F)(F)F)C2)ccc1-n1cncn1 (stereo not drawn) [1-496] |  | 100 | 100 | 100 | 
N#Cc1cc(C2=NCC(c3cc(OC(F)F)cc(C(F)(F)F)c3)(C(F)(F)F)C2)ccc1-n1cncn1 (stereo not drawn) [1-497] | 100 | 100 |  | 100 | 
N#Cc1cc(C2=NCC(c3cc(Cl)cc(Cl)c3)(C(F)(F)Cl)C2)ccc1-n1cncn1 (stereo not drawn) [1-506] |  | 100 | 100 | 100 | 
Cc1cc(C2=NCC(c3cc(Cl)c(Cl)c(Cl)c3)(C(F)(F)F)C2)ccc1CN (stereo not drawn) [2-76] |  |  |  | 100 | 
CC(=O)NCc1ccc(C2=NCC(c3cc(Cl)c(Cl)c(Cl)c3)(C(F)(F)F)C2)cc1 (stereo not drawn) [2-168] |  | 100 | 100 | 100 | 
CCC(=O)NCc1ccc(C2=NCC(c3cc(Cl)c(Cl)c(Cl)c3)(C(F)(F)F)C2)cc1 (stereo not drawn) [2-169] |  | 100 | 100 | 100 | 
O=C(CC(F)(F)F)NCc1ccc(C2=NCC(c3cc(Cl)c(Cl)c(Cl)c3)(C(F)(F)F)C2)cc1 (stereo not drawn) [2-170] |  | 100 | 100 | 100 | 
Cc1cc(C2=NCC(c3cc(C(F)(F)F)cc(C(F)(F)F)c3)(C(F)(F)F)C2)ccc1CN (stereo not drawn) [2-547] |  |  |  | 100 | 
Cc1cc(C2=NCC(c3cc(C(F)(F)F)cc(C(F)(F)F)c3)(C(F)(F)F)C2)ccc1CNC(=O)OC(C)(C)C (stereo not drawn) [2-548] |  | 100 | 100 | 100 | 
CCC(=O)NCc1ccc(C2=NCC(c3cc(C(F)(F)F)cc(C(F)(F)F)c3)(C(F)(F)F)C2)cc1 (stereo not drawn) [2-647] | 100 | 100 | 100 | 100 | 
O=C(CC(F)(F)F)NCc1ccc(C2=NCC(c3cc(C(F)(F)F)cc(C(F)(F)F)c3)(C(F)(F)F)C2)cc1 (stereo not drawn) [2-648] | 100 | 100 | 100 | 100 | 
CCC(=O)NCc1ccc(C2=NCC(c3cc(Cl)nc(Cl)c3)(C(F)(F)F)C2)cc1C(F)(F)F (stereo not drawn) [2-2151] |  | 100 | 100 | 100 | 
CC(=O)NCc1ccc(C2=NCC(c3cc(C(F)(F)F)nc(C(F)(F)F)c3)(C(F)(F)F)C2)cc1Br (stereo not drawn) [2-2732] |  | 100 | 100 | 100 | 
CCC(=O)NCc1ccc(C2=NCC(c3cc(C(F)(F)F)nc(C(F)(F)F)c3)(C(F)(F)F)C2)cc1Br (stereo not drawn) [2-2733, N-(4-{3-[2,6-bis(trifluoromethyl)pyridin-4-yl]-3-(trifluoromethyl)-3,4-dihydro-2H-pyrrol-5-yl}-2-bromobenzyl)propanamide] |  | 100 | 100 | 100 | 
CSCC(=O)NCc1ccc(C2=NCC(c3cc(C(F)(F)F)nc(C(F)(F)F)c3)(C(F)(F)F)C2)cc1Br (stereo not drawn) [2-2737] |  | 100 | 100 | 100 | 
CS(=O)(=O)CC(=O)NCc1ccc(C2=NCC(c3cc(C(F)(F)F)nc(C(F)(F)F)c3)(C(F)(F)F)C2)cc1Br (stereo not drawn) [2-2739] |  | 100 | 100 | 100 | 
CCC(=O)NC(C)c1ccc(C2=NCC(c3cc(C(F)(F)F)nc(C(F)(F)F)c3)(C(F)(F)F)C2)cc1 (stereo not drawn) [2-2872] | 100 |  |  | 100 | 
